pIC50: −log10 of the molar value. *1 amine or outer side, *2 acyl side, *3 side chain or, on linkers, in order; H or OH if unused. Where a SMILES comes first, the peptide text is derived from it. Bridges are numbered along the chain shown (N, C = ends). [ ]: non-standard residue; d: D form. The star is where a group is joined. hPhe(3,5-F2-4-CF3) = N[C@@H](CCc1cc(F)c(C(F)(F)F)c(F)c1)C(=O)O; hPhe(3-Cl-4-CF3) = N[C@@H](CCc1ccc(C(F)(F)F)c(Cl)c1)C(=O)O; NPrPhe(4-CF3) = CCCN[C@@H](Cc1ccc(C(F)(F)F)cc1)C(=O)O; X17 = CN([C@@H](CCCCC=[*:3])C(=O)[*:2])[*:1]; dαMeAlg = C[C@](CC=[*:3])(N[*:1])C(=O)[*:2]; Morpholine(3S-CO) = O=C(O)[C@@H]1COCCN1; NMeGly(cPent) = CN[C@H](C(=O)O)C1CCCC1; Pro(4,4-F2) = O=C(O)[C@@H]1CC(F)(F)CN1; X3 = CCC[C@](C)(N[*:1])C(=O)[*:2]; Hyp = O=C(O)[C@@H]1C[C@@H](O)CN1; NMeD = CN[C@@H](CC(=O)O)C(=O)O; NMeL = CN[C@@H](CC(C)C)C(=O)O; NMeNva = CCC[C@H](NC)C(=O)O; Morpholide = C1CN(*)CCO1; NMeA = CN[C@@H](C)C(=O)O; Ac5c = NC1(C(=O)O)CCCC1; Aze = O=C(O)[C@@H]1CCN1; Ac4c = NC1(C(=O)O)CCC1; NPrGly = CCCNCC(=O)O; Sar = CNCC(=O)O
What was measured:
[1] = target: GDP-bound NRAS wild-type protein (Homo sapiens, UniProt P01111); test: Binding to NRAS by surface plasmon resonance (SPR), KD and KD ratio to KRAS
GDP-bound NRAS wild-type protein, sequence (P01111 whole entry): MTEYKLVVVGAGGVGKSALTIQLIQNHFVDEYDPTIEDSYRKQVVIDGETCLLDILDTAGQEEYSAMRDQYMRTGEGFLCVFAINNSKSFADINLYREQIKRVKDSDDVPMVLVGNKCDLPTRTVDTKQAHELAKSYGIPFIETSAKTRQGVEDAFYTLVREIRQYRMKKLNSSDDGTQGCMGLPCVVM
Method in brief: (§1)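 Compound binding is evaluated by SPR single-cycle kinetics, with concentrations added intermittently from low to high for 75 s each. Target surfaces carry GDP-loaded biotinylated Avi-RAS at about 100–300 RU, regenerated after each cycle; temperature 30°C. A 1:1 binding model gives KD.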

HRAS wild-type protein = HRAS wild-type protein (Homo sapiens, UniProt P01112); test: Binding to HRAS by surface plasmon resonance (SPR), KD and KD ratio to KRAS
HRAS wild-type protein, sequence (P01112 whole entry): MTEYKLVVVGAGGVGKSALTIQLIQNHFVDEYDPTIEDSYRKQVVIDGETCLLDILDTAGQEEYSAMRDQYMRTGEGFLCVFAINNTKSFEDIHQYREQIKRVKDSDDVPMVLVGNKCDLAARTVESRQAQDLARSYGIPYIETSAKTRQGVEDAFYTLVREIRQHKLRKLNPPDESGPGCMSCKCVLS
Method in brief: as §1

[2] = system: human lung cancer strain NCI-H441; format: cell-based
Method in brief: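 Proliferation was scored by […] measured after the reagent was added to cultures kept at 37°C in 5% carbon dioxide.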

[3] = ratio of KD for GDP-bound NRAS wild-type protein to KD for KRAS
[4] = ratio of KD for HRAS wild-type protein to KD for KRAS
[5] = ratio of KD value for GDP-bound NRAS wild-type protein to KD value for KRAS (SPR)
[6] = ratio of KD value for HRAS wild-type protein to KD value for KRAS (SPR)
[7] = ratio of the KD value with respect to GDP-bound NRAS wild-type protein to the KD value with respect to KRAS
[8] = ratio of the KD value with respect to HRAS wild-type protein to the KD value with respect to KRAS

Row | Structure (SMILES) | NRAS /KRAS [1, 3] | HRAS /KRAS (HRAS wild-type protein; [4]) | pIC50 [2] | NRAS /KRAS [1, 5] | HRAS /KRAS (HRAS wild-type protein; [6]) | NRAS /KRAS [1, 7] | HRAS /KRAS (HRAS wild-type protein; [8])
1 | CCCN1C(=O)[C@@H]2CCN2C(=O)[C@H](C)N(C)C(=O)[C@H]([C@@H](C)CC)NC(=O)[C@H](CC(C)C)N(C)C(=O)C[C@@H](C(=O)N2CCOCC2)NC(=O)[C@H](C2CCCC2)N(C)C(=O)C2(CCCC2)NC(=O)[C@@H]2CC(F)(F)CN2C(=O)[C@H](CCc2ccc(C(F)(F)F)c(Cl)c2)NC(=O)CN(C)C(=O)[C@@H]1Cc1ccc(C(F)(F)F)cc1 [PP0345] ([NMeL]I[NMeA][Aze][NPrPhe(4-CF3)][Sar][hPhe(3-Cl-4-CF3)][Pro(4,4-F2)][Ac5c][NMeGly(cPent)]D-Morpholide; lactam N-11) | C (A compound having a KD ratio of 0.1 or more and less than 3 is denoted as C) | B (a compound having 3 or more and less than 10 is denoted as B) | 7.26 | – | – | – | –
2 | CCC[C@H]1C(=O)N[C@@H]([C@@H](C)CC)C(=O)N(C)CC(=O)N(C)[C@H]2C/C=C\CCN(C2=O)[C@@H](Cc2ccc(C(F)(F)F)cc2)C(=O)N(C)CC(=O)N[C@@H](CCc2ccc(C(F)(F)F)c(Cl)c2)C(=O)N2C[C@H](OCC)C[C@H]2C(=O)NC2(CC(C)(C)C2)C(=O)N(C)[C@@H]([C@@H](C)CC)C(=O)N(C)[C@H](C(=O)N(C)C)CC(=O)N1C [PP2973] | A (a compound having 10 or more and less than 20 is denoted as A) | A (a compound having 10 or more and less than 20 is denoted as A) | 8.10 | – | – | – | –
3 | CCCN(C)C(=O)[C@@H]1CC(=O)N(C)[C@@H](C)C(=O)N[C@@H]([C@@H](C)CC)C(=O)N(C)CC(=O)N(C)[C@H]2C/C=C\CCN(C2=O)[C@@H](Cc2ccc(C(F)(F)F)cc2)C(=O)N(C)CC(=O)N[C@@H](CCc2cc(F)c(C(F)(F)F)c(F)c2)C(=O)N2C[C@H](F)C[C@H]2C(=O)NC2(CC(C)(C)C2)C(=O)N(C)[C@@H](C2CCCC2)C(=O)N1C [PP1663] | – | – | 8.44 | AA (a compound having 20 or more is denoted as AA) | A (a compound having 10 or more and less than 20 is denoted as A) | – | –
4 | CCCN1C(=O)CN(C)C(=O)CN(C)C(=O)[C@H]([C@@H](C)CC)NC(=O)[C@H](CC(C)C)N(C)C(=O)C[C@@H](C(=O)N(C)C)N(C)C(=O)[C@H](C2CCCC2)N(C)C(=O)[C@](C)(CCC)NC(=O)[C@@H]2CCCN2C(=O)[C@H](CCc2cc(F)c(C(F)(F)F)c(F)c2)NC(=O)CN(C)C(=O)[C@@H]1Cc1ccc(C(F)(F)F)cc1 [PP0737] ([NMeL]I[Sar][Sar][NPrPhe(4-CF3)][Sar][hPhe(3,5-F2-4-CF3)]P[X3][NMeGly(cPent)][NMeD]-NMe2; lactam N-11) | – | – | 7.42 | – | – | B (a compound having 3 or more and less than 10 is denoted as B) | C (A compound having a KD ratio of 0.1 or more and less than 3 is denoted as C)
5 | CCC[C@H]1C(=O)N[C@@H]([C@@H](C)CC)C(=O)N(C2CC2)CC(=O)N(C)[C@H]2C/C=C\CCN(C2=O)[C@@H](Cc2ccc(C(F)(F)F)cc2)C(=O)N(C)CC(=O)N[C@@H](CCc2ccc(C(F)(F)F)c(OC)c2)C(=O)N2C[C@H](OCC)C[C@H]2C(=O)N(C)C2(CCC2)C(=O)N(C)[C@@H](C(CC)CC)C(=O)N(C)[C@H](C(=O)N(C)C)CC(=O)N1C [PP2313] | – | – | 8.13 | – | – | AA (a compound having 20 or more is denoted as AA) | A (a compound having 10 or more and less than 20 is denoted as A)
6 | CC[C@H](C)[C@@H]1NC(=O)[C@H](CC2CC2)N(C)C(=O)C[C@@H](C(=O)N(C)C)N(C)C(=O)[C@H](C2CCCC2)N(C)C(=O)C2(CCC2)NC(=O)[C@@H]2C[C@@H](F)CN2C(=O)[C@H](CCc2cc(F)c(C(F)(F)F)c(F)c2)NC(=O)CN(C)C(=O)[C@H](Cc2ccc(C(F)(F)F)cc2)N2CC/C=C\C[C@@H](C2=O)N(C)C(=O)CN(C)C1=O [PP1497] | – | – | 7.97 | A (a compound having 10 or more and less than 20 is denoted as A) | A (a compound having 10 or more and less than 20 is denoted as A) | – | –
7 | CC[C@H](C)[C@@H]1NC(=O)[C@H](CC)N(C)C(=O)C[C@@H](C(=O)N(C)C)N(C)C(=O)[C@H](C2CCCC2)N(C)C(=O)C2(CCC2)N(C)C(=O)[C@@H]2CCCN2C(=O)[C@H](CCc2cc(F)c(C(F)(F)F)c(F)c2)NC(=O)CN(C)C(=O)[C@H](Cc2ccc(C(F)(F)F)cc2)N2CC/C=C\C[C@@H](C2=O)N(C)C(=O)CN(C)C1=O [PP1780] | – | – | 8.09 | A (a compound having 10 or more and less than 20 is denoted as A) | A (a compound having 10 or more and less than 20 is denoted as A) | – | –
8 | CCCN1C(=O)CN(C)C(=O)CN(C)C(=O)[C@H]([C@@H](C)CC)NC(=O)[C@H](CC(C)C)N(C)C(=O)C[C@@H](C(=O)N2CCOCC2)N(C)C(=O)[C@H](C2CCCC2)N(C)C(=O)C2(CCCC2)NC(=O)[C@@H]2COCCN2C(=O)[C@H](CCc2ccc(C(F)(F)F)c(Cl)c2)NC(=O)CN(C)C(=O)[C@@H]1Cc1ccc(C(F)(F)F)cc1 [PP0265] ([NMeL]I[Sar][Sar][NPrPhe(4-CF3)][Sar][hPhe(3-Cl-4-CF3)][Morpholine(3S-CO)][Ac5c][NMeGly(cPent)][NMeD]-Morpholide; lactam N-11) | B (a compound having 3 or more and less than 10 is denoted as B) | C (A compound having a KD ratio of 0.1 or more and less than 3 is denoted as C) | 7.88 | – | – | – | –
9 | CCC[C@H]1C(=O)N[C@@H]([C@@H](C)CC)C(=O)N(CCC)CC(=O)N(C)CC(=O)N(CCC)[C@@H](Cc2ccc(C(F)(F)F)cc2)C(=O)N(C)CC(=O)N[C@@H](CCc2ccc(C(F)(F)F)c(Cl)c2)C(=O)N2CCC[C@H]2C(=O)NC2(CCC2)C(=O)N(C)[C@@H](C2CCCC2)C(=O)N(C)[C@H](C(=O)N2CCOCC2)CC(=O)N1C [PP1947] ([NMeNva]I[NPrGly][Sar][NPrPhe(4-CF3)][Sar][hPhe(3-Cl-4-CF3)]P[Ac4c][NMeGly(cPent)][NMeD]-Morpholide; lactam N-11) | – | – | 7.66 | – | – | B (a compound having 3 or more and less than 10 is denoted as B) | B (a compound having 3 or more and less than 10 is denoted as B)
10 | CCCN1C(=O)CN(C)C(=O)CN(C)C(=O)[C@H]([C@@H](C)CC)NC(=O)[C@@H]2CCCCC=CC[C@@](C)(NC(=O)[C@@H]3C[C@@H](OCC)CN3C(=O)[C@H](CCc3cc(F)c(C(F)(F)F)c(F)c3)NC(=O)CN(C)C(=O)[C@@H]1Cc1ccc(C(F)(F)F)cc1)C(=O)N(C)[C@@H](C1CCCC1)C(=O)N(C)[C@H](C(=O)N1CCOCC1)CC(=O)N2C [PP0902] ([X17]I[Sar][Sar][NPrPhe(4-CF3)][Sar][hPhe(3,5-F2-4-CF3)][Hyp](Et)[dαMeAlg][NMeGly(cPent)][NMeD]-Morpholide; staple 1-9; lactam N-11) | A (a compound having 10 or more and less than 20 is denoted as A) | B (a compound having 3 or more and less than 10 is denoted as B) | 7.14 | – | – | – | –
11 | CCCN1C(=O)CN(C)C(=O)[C@@H]2CCN2C(=O)[C@H]([C@@H](C)CC)NC(=O)[C@H](CC(C)C)N(C)C(=O)C[C@@H](C(=O)N(C)C)N(C)C(=O)[C@H](C2CCCC2)N(C)C(=O)C2(CCC2)NC(=O)[C@@H]2CCCN2C(=O)[C@H](CCc2ccc(C(F)(F)F)c(Cl)c2)NC(=O)CN(C)C(=O)[C@@H]1Cc1ccc(C(F)(F)F)cc1 [PP0430] ([NMeL]I[Aze][Sar][NPrPhe(4-CF3)][Sar][hPhe(3-Cl-4-CF3)]P[Ac4c][NMeGly(cPent)][NMeD]-NMe2; lactam N-11) | – | – | 7.55 | – | – | B (a compound having 3 or more and less than 10 is denoted as B) | B (a compound having 3 or more and less than 10 is denoted as B)
12 | CC[C@H](C)[C@@H]1NC(=O)[C@H](CC(C)C)N(C)C(=O)C[C@@H](C(=O)N(C)C)N(C)C(=O)[C@H](C2CCCC2)N(C)C(=O)C2(CCC2)NC(=O)[C@@H]2CCCN2C(=O)[C@H](CCc2cc(F)c(C(F)(F)F)c(F)c2)NC(=O)CN(C)C(=O)[C@H](Cc2ccc(C(F)(F)F)cc2)N2CCCC[C@@H](C2=O)N(C)C(=O)CN(C)C1=O [PP0574] | – | – | 8.51 | – | – | C (A compound having a KD ratio of 0.1 or more and less than 3 is denoted as C) | B (a compound having 3 or more and less than 10 is denoted as B)
13 | CC[C@H](C)[C@@H]1NC(=O)[C@H](CC(C)C)N(C)C(=O)C[C@@H](C(=O)N2CCOCC2)N(C)C(=O)[C@H](C2CCCC2)N(C)C(=O)C2(CCC2)NC(=O)[C@@H]2CCCN2C(=O)[C@H](CCc2ccc(C(F)(F)F)c(Cl)c2)NC(=O)CN(C)C(=O)[C@H](Cc2ccc(F)cc2)N2CCCCC[C@@H](C2=O)N(C)C(=O)CN(C)C1=O [PP0967] | B (a compound having 3 or more and less than 10 is denoted as B) | B (a compound having 3 or more and less than 10 is denoted as B) | 7.11 | – | – | – | –
14 | CCCN(C)C(=O)[C@@H]1CC(=O)N(C)[C@@H](COC)C(=O)N[C@@H]([C@@H](C)CC)C(=O)N(C)CC(=O)N(C)[C@H]2C/C=C\CCN(C2=O)[C@@H](Cc2ccc(C(F)(F)F)cc2)C(=O)N(C)CC(=O)N[C@@H](CCc2cc(F)c(C(F)(F)F)c(F)c2)C(=O)N2C[C@H](OCC)C[C@H]2C(=O)NC2(CC(F)(F)C2)C(=O)N(C)[C@@H](C2CCCC2)C(=O)N1C [PP1743] | – | – | 8.29 | AA (a compound having 20 or more is denoted as AA) | A (a compound having 10 or more and less than 20 is denoted as A) | – | –

Reference: EP4603105A1, “PHARMACEUTICAL COMPOSITION CONTAINING CYCLIC COMPOUND HAVING SELECTIVE KRAS INHIBITORY EFFECT AGAINST HRAS AND NRAS” (CHUGAI SEIYAKU KABUSHIKI KAISHA, priority 2022, dated 2024)
